Where “and” joins values, the source holds several entries; their conditions need not be identical. Equal entries are not always repeated. Structures can show the parent of a compound that is named as a salt. Where two headings read alike, the source gives them in different places. Bridge positions count the residues as written; N and C are the ends. Square brackets hold non-standard residues; d marks the D form. Peptide text beside a SMILES is read from it. Dab = NCC[C@H](N)C(=O)O
What was measured:
[1] = 500 μM in 50 mM Tris buffer, pH 7.4, 5% DMSO, 25° C.
Protocol: Charged, amphipathic molecules are surface-active, and can be cytolytic to mammalian cells. […] Samples were at 500 μM concentration in 50 mM Tris buffer, pH 7.4 containing 5% DMSO. The instrument was calibrated with water at 25° C. (72 mN/m) and surface tension values were recorded over a range of bubble surface ages from 100 to 1500 ms at 25° C.

[2] = system: E. coli ATCC 9637; assay: Effect of acylpolyamines on MIC of rifampicin (sensitization); assay type: cell-based, Escherichia coli; details: for Sensitization to Rifampin: E. coli strain 9637 preincubated with 10 μM of compound, MIC of rifampicin
Protocol: E. coli ATCC 9637 was seeded in MH broth in chequerboard format in a 384-well plate containing a constant concentration of compound and varying doses of rifampicin. Bacterial growth was monitored by turbidimetry at 600 nm. PMBN and melittin were used as positive controls. Wells containing no test-compound served as negative control. […] Fold sensitization was calculated as MICRifampicin alone/MICRifampicin+10μM Compound.
Perturbation of the outer membrane permeability barrier greatly sensitizes Gram negative organisms to otherwise impermeable hydrophobic solutes, rifampicin being a classic example To determine the effect of acylpolyamines on the MIC of hydrophobic antibiotic, rifampicin, E. coli strain 9637 was used. Overnight cultures of E. coli grown in MHB preincubated with 10 μM of acylpolyamines were added to serially diluted rifampicin in a 384-well microtiter plate. After incubation at 37° C. overnight, the MIC was determined. Controls included PMBN and melittin (positive) and rifampicin alone (negative). All experiments were run in triplicate.

[3] = system: CF-1 mice; details: preliminary; for subacute toxicity: 100 μg/mouse, subcutaneously, for 15 days; for acute toxicity: up to 1 mg/mouse, one dose subcutaneously
Protocol: Detailed biophysical studies on the characterization of the binding site on albumin, stoichiometry, and dependence of binding affinity on mono-versus bis-acylation and acyl chain length will be published elsewhere.
Clinical signs of acute toxicity were monitored for 48 h following a single injection. In subacute studies, 100 μg of 4e was injected daily in the subcutaneous tissue of the flank region, the sites being alternated every day, for a duration of 15 days. The animals were monitored daily for signs of local irritation, weight loss, and food consumption.

[4] = system: S. aureus ATCC 13709; assay: microbe, parasite or virus in culture
Protocol: (§1) An equal volume of a suspension of either E. coli ATCC 9637 (FIG. 6A) or S. aureus ATCC 13709 (FIG. 6B) in 2× Mueller-Hinton broth was added using an automated liquid dispensing system to a 384 well plate, and bacterial growth was measured by absorptimetry as described in Materials and Methods.
(§2) In this example, E. coli strain 9637 and S. aureus strain 13709 were procured from ATCC (Manassas, Va.). For IM permeability assays, E. coli ML-35 (ATCC 43827), a lactose permease-deficient strain with constitutive cytoplasmic β-galactosidase activity was used (26). Calcium chloride transformation of E. coli ML-35 was performed using the plasmid vector pBR322 (6), encoding tetracycline and ampicillin resistance genes (Promega, Madison, Wis.). The transformed strain, E. coli ML-35p, selected by ampicillin resistance, was utilized for the OM permeabilization assay. E. coli ML-35p was maintained on trypticase soy agar plates with 50 μg/ml of ampicillin.
(§3) Minimum inhibitory concentrations of the acylpolyamines were determined by broth microdilution method (1) as per NCCLS guidelines. Mid-log phase Mueller-Hinton broth (MHB; non-cation supplemented) cultures of organisms (40 μl; OD600nm adjusted to 0.5 AU, and diluted ten-fold) were added to equal volumes of two-fold serially diluted acylpolyamines in a 384-well microtiter plate with the help of a Biotek Precision 2000 automated microplate pipetting system. The MICs of rifampicin, polymyxin B (PMB), polymyxin B nonapeptide (PMBN), naphthylacetyl spermine trihydrochloride and methoctramine tetrahydrochloride (Sigma, St. Louis, Mo.) were included as reference compounds for comparison of activity. The microtiter plates were sealed and incubated overnight at 37° C. The plates were read at an absorbance of 600 nm. The lowest concentration of an agent inhibiting growth of the organisms was recorded as the MIC.

[5] = system: E. coli ATCC 9637; assay: microbe, parasite or virus in culture
Protocol: as §1, §2, §3

[6] = system: human erythrocytes; details: for hemolytic activity in the presence of human serum albumin: physiological concentrations (~650 μM) of human serum albumin
Protocol: Melittin was used as a positive control.
Erythrocyte damage was measured using two different techniques. In the first, hemolysis was quantified using extremely diluted, aged human whole blood such that the effects of the compounds binding to plasma proteins would be negligible, and the hemolytic activity would be magnified because of increased osmotic fragility of the erythrocytes as a consequence of depleted Na^+ K^+ ATPase activity. […] Dilute erythrocyte suspensions were prepared by diluting one-week-old whole blood obtained by venipuncture from healthy human volunteers 1:1000 in isotonic (0.9 g/100 ml) saline solution to which was added graded doses of compound. […] The samples were therefore examined with a Beckman-Coulter Vi-Cell™ Cell Viability Analyzer (Beckman-Coulter, Hialeah, Fla.). This instrument implements an automated intravital trypan blue exclusion method using real-time automated video microscopy. Measurement parameters for erythrocytes were gated appropriately on control erythrocytes to specify thresholds of cell recognition and viability. Data on total number of cells/ml and viable cells/ml were collected through 50 captured images per sample with a counting accuracy of ±3%. In order to examine the effect of plasma proteins on the surface activity, some of the experiments were repeated in the presence of near-physiological concentrations of human serum albumin. […] The second method, consequently, was designed to examine the effects of the compounds on whole blood. […] After incubation at 37° C. for 30 min, the plates were centrifuged at 3000 RPM for 10 min, 80 μl of supernatants transferred to a fresh plate, and the amount of free hemoglobin released into the supernatant was quantified using absorptimetry at 570 nm.
The hemolysis induced by the compounds was quantified using an extremely dilute suspension of washed, aged human erythrocytes under protein-free conditions (isotonic saline). […]

[7] = system: E. coli ML-35p (OM) / E. coli ML-35 (IM); assay type: cell-based, Escherichia coli; details: nitrocefin and ONPG hydrolysis
Protocol: OM permeabilizing activity was determined using E. coli ML-35p (parent i^− z^+ y^− ATCC 43827 transformed with pBR322 vector encoding periplasmic β-lactamase); the leakage of periplasmic β-lactamase activity was quantified using nitrocefin as a chromogenic substrate. IM permeabilizing activity was determined using E. coli ML-35 using o-nitrophenyl-β-D-galactopyranoside as the substrate to determine the β-galactosidase activity. In all experiments, PMB, PMBN, and melittin were used as reference compounds.
Nitrocefin (Calbiochem, San Diego, Calif.) was used for the determination of periplasmic β-lactamase activity since PADAC has been reported to be frequently insensitive to β-lactamase activity in clinically relevant strains of Staphylococcus. […] Harvested mid-log phase cultures of E. coli ML-35p (OD600nm adjusted to 0.5 AU) grown in trypticase soy broth were washed thrice with normal saline (0.9%). Nitrocefin was added to a final concentration of 50 μg/ml to the washed bacterial suspension, which was then added to the serially diluted compounds in a 384-well microtiter plate as described earlier. […] After various times of incubation at 37° C., β-lactamase activity was measured spectrophotometrically at 486 nm using an automated Spectramax M2 instrument (Molecular Devices, Sunnyvale, Calif.).
The IM permeability was measured using o-nitrophenyl-β-D-galactopyranoside (“ONPG”; Sigma, St. Louis, Mo.) as the substrate to determine the β-galactosidase activity. […] Washed cultures of E coli ML-35 mixed with 1.5 mM of ONPG in normal saline (0.9%) were added to serially diluted compounds in a 384-well microtiter plate. PMBN and melittin were used as the controls. The production of o-nitrophenol was quantified absorptimetrically at 420 nm after an incubation period of 1 hour at 37° C.
OM and IM permeability were determined respectively from dose-response curves of nitrocefin and ONPG hydrolysis rates as described in Lehrer et al., Concurrent assessment of inner and outer membrane permeabilization and bacteriolysis in E. coli by multiple-wavelength spectrophotometry, J. Immunol.

[8] = system: E. coli W3110; details: cited from earlier work
[9] = 10 μM compound, E. coli ATCC 9637
[10] = S. aureus ATCC 13709, Mueller-Hinton broth, overnight 37° C.
[11] = E. coli ATCC 9637, Mueller-Hinton broth, overnight 37° C.

Q: With `CCCCCCCCC(=O)NCCCNCCCNCCCCNCCCNCCCNC(=O)CCCCCCCC.O=C(O)C(F)(F)F.O=C(O)C(F)(F)F.O=C(O)C(F)(F)F.O=C(O)C(F)(F)F` [Compound 8a] as the molecule, how does the surface activity [1] read?
A: considerably surface active

Q: And the “sensitization activity (MIC rifampicin alone / MIC rifampicin + 10 μM compound)” value [2, 9]?
A: 4096 fold

Q: And the “Sensitization to Rifampin” value [2]?
A: 0.00381

Q: What about the subacute toxicity [3] of the same molecule?
A: not revealed any detectable toxicity

Q: What about the acute toxicity [3] of the same molecule?
A: not revealed any detectable toxicity

Q: And the MIC [4, 10]?
A: 15.6 μM and 16.4 μg/ml

Q: What about the MIC [5, 11] of the same molecule?
A: 31.25 μM and 32.9 μg/ml

Q: With `CCCCCCCCCCCCCCCCCCC(=O)NCCCNCCCNCCCCNCCCN.O=C(O)C(F)(F)F.O=C(O)C(F)(F)F.O=C(O)C(F)(F)F.O=C(O)C(F)(F)F` [Compound 4g] as the molecule, how does the “hemolytic activity in the presence of human serum albumin” value [6] read?
A: completely abrogated

Q: What about the MIC [4, 10] of the same molecule?
A: 15.6 μM and 15.5 μg/ml

Q: What about the MIC [5, 11] of the same molecule?
A: 62.5 μM and 62.2 μg/ml

Q: And the “membrane-permeabilizing activity (OM and IM)” value [7]?
A: highly membrane-active

Q: With `CO[C@H]1/C=C/O[C@@]2(C)Oc3c(C)c(O)c4c(O)c(c(/C=N/N5CCN(C)CC5)c(O)c4c3C2=O)NC(=O)/C(C)=C\C=C\[C@H](C)[C@H](O)[C@@H](C)[C@@H](O)[C@@H](C)[C@H](OC(C)=O)[C@@H]1C` [rifampicin, reference compound] as the molecule, how does the MIC ([2]; Escherichia coli, ATCC9637, E. coli ATCC 9637, no test compound, read-out: MIC of rifampicin alone) read?
A: 15.6 µg/mL

Q: For `CCCCCCCCCCCCCCCCCCC(=O)NCCCNCCCNCCCCNCCCNCCCNC(=O)CCCCCCCCCCCCCCCCCC.O=C(O)C(F)(F)F.O=C(O)C(F)(F)F.O=C(O)C(F)(F)F.O=C(O)C(F)(F)F` [Compound 8f], which “Sensitization to Rifampin” value [2] is on record?
A: 15.6

Q: And the MIC [4, 10]?
A: 125 μM and 166.7 μg/ml

Q: And the MIC [5, 11]?
A: 62.5 μM and 83.3 μg/ml

Q: What does the source list for `COc1ccccc1CNCCCCCCNCCCCCCCCNCCCCCCNCc1ccccc1OC` [Methoctramine, methoctramine tetrahydrochloride, reference compound]?
A: MIC reported by Yasuda et al. [8]: 22 μM and 16 mg/l; MIC ([4]; Staphylococcus aureus, ATCC13709): 156 µM and 114 µg/mL; MIC [5, 11]: 312.5 µM; MIC ([5]; Escherichia coli, ATCC9637): 312 µM and 228 µg/mL

Q: Which “Sensitization to Rifampin” value [2] does the source give for `CCCCCCCCC(=O)NCCCNCCCNCCCCNCCCN.O=C(O)C(F)(F)F.O=C(O)C(F)(F)F.O=C(O)C(F)(F)F.O=C(O)C(F)(F)F` [Compound 4b] here?
A: 7.81

Q: What about the MIC [4, 10] of the same molecule?
A: 125 μM and 106.96 μg/ml

Q: And the MIC [5, 11]?
A: 62.5 μM and 53.4 μg/ml

Q: Which “Sensitization to Rifampin” value [2] does the source give for `CCCCCCCCCCCCCCC(=O)NCCCNCCCNCCCCNCCCNCCCNC(=O)CCCCCCCCCCCCCC.O=C(O)C(F)(F)F.O=C(O)C(F)(F)F.O=C(O)C(F)(F)F.O=C(O)C(F)(F)F` [Compound 8d] here?
A: 15.6

Q: What about the MIC [4, 10] of the same molecule?
A: 250 μM and 305.3 μg/ml

Q: And the MIC [5, 11]?
A: 62.5 μM and 76.3 μg/ml

Q: What does the source list for `CCCCCCCCCCCCC(=O)NCCCNCCCNCCCCNCCCN.O=C(O)C(F)(F)F.O=C(O)C(F)(F)F.O=C(O)C(F)(F)F.O=C(O)C(F)(F)F` [Compound 4d]?
A: Sensitization to Rifampin [2]: 62.5; subacute toxicity [3]: not revealed any detectable toxicity; acute toxicity [3]: not revealed any detectable toxicity; MIC [4, 10]: 15.6 μM and 14.4 μg/ml; MIC [5, 11]: 31.25 μM and 28.9 μg/ml

Q: Which results are given for Polymyxin B [PMB, reference compound]?
A: Sensitization to Rifampin [2]: 0.2; MIC [4, 10]: 125 μM and 173.2 μg/ml; MIC [5, 11]: 3.9 μM and 5.4 μg/ml

Q: For `CC(C)C[C@@H]1NC(=O)[C@@H](Cc2ccccc2)NC(=O)[C@H](CCN)NC(=O)[C@@H](NC(=O)[C@H](CCN)NC(=O)[C@@H](N)[C@@H](C)O)CCNC(=O)[C@H]([C@@H](C)O)NC(=O)[C@H](CCN)NC(=O)[C@H](CCN)NC1=O` [PMBN, polymyxin B nonapeptide, reference compound] (H-T[Dab][Dab][Dab][dF]L[Dab][Dab]T; lactam 3-C), which “MIC of rifampicin in the presence of compound” value [2, 9] is on record?
A: 0.976 µg/mL

Q: And the “sensitization activity (MIC rifampicin alone / MIC rifampicin + 10 μM compound)” value [2, 9]?
A: 16 fold

Q: And the MIC ([4]; ATCC 13709)?
A: 500; (481.5) μM

Q: What about the MIC [4, 10] of the same molecule?
A: 500; (481.5) μg/ml

Q: And the MIC ([5]; ATCC 9637)?
A: 250; (240.7) μM

Q: And the MIC [5, 11]?
A: 250; (240.7) μg/ml

Q: Which “Sensitization to Rifampin” value [2] does the source give for `CCCCCCCCCCCCCCCCC(=O)NCCCNCCCNCCCCNCCCNCCCNC(=O)CCCCCCCCCCCCCCCC.O=C(O)C(F)(F)F.O=C(O)C(F)(F)F.O=C(O)C(F)(F)F.O=C(O)C(F)(F)F` [Compound 8e] here?
A: 15.6

Q: And the MIC [4, 10]?
A: 250 μM and 319.3 μg/ml

Q: And the MIC [5, 11]?
A: 62.5 μM and 79.4 μg/ml

Q: For `Cl.Cl.Cl.NCCCNCCCCNCCCNC(=O)Cc1cccc2ccccc12` [Naphthylacetylspermine, naphthylacetyl spermine trihydrochloride, reference compound], which “MIC reported by Yasuda et al.” value ([8]; trihydrochloride) is on record?
A: > 267 μM and > 128 mg/l

Q: And the MIC ([4]; S. aureus ATCC 13709, Mueller-Hinton broth, overnight 37° C., trihydrochloride)?
A: 1250 μM and 599.8 μg/ml

Q: What about the MIC ([5]; E. coli ATCC 9637, Mueller-Hinton broth, overnight 37° C., listed as naphthylacetylspermine, trihydrochloride) of the same molecule?
A: 1250 µM

Q: What about the MIC ([5]; E. coli ATCC 9637, Mueller-Hinton broth, overnight 37° C., trihydrochloride) of the same molecule?
A: 1250 μM and 599.8 μg/ml

Q: Which results are given for `CCCCCCCCCC(=O)NCCCNCCCNCCCCNCCCNCCCNC(=O)CCCCCCCCC.O=C(O)C(F)(F)F.O=C(O)C(F)(F)F.O=C(O)C(F)(F)F.O=C(O)C(F)(F)F` [Compound 8b]?
A: surface activity [1]: considerably surface active; sensitization activity (MIC rifampicin alone / MIC rifampicin + 10 μM compound) [2, 9]: 4096 fold; Sensitization to Rifampin [2]: 0.00381; MIC in the presence of human serum albumin ([4]; S. aureus, HSA 4.5 g/100 ml, 677 μM): 15.6 µM; attenuation of MIC by human serum albumin ([4]; S. aureus, with vs without HSA 4.5 g/100 ml): four-fold; MIC in the presence of human serum albumin ([5]; E. coli, HSA 4.5 g/100 ml, 677 μM): 125 µM; attenuation of MIC by human serum albumin ([5]; E. coli, with vs without HSA 4.5 g/100 ml): four-fold

Q: With `CC(=O)NCCCNCCCNCCCCNCCCN.O=C(O)C(F)(F)F.O=C(O)C(F)(F)F.O=C(O)C(F)(F)F.O=C(O)C(F)(F)F` [Compound 4a] as the molecule, how does the “Sensitization to Rifampin” value [2] read?
A: 31.25

Q: What about the MIC [5, 11] of the same molecule?
A: 62.5 μM and 47.3 μg/ml

Q: Which results are given for `CCCCCCCCCC(=O)NCCCNCCCNCCCCNCCCN.O=C(O)C(F)(F)F.O=C(O)C(F)(F)F.O=C(O)C(F)(F)F.O=C(O)C(F)(F)F` [Compound 4c]?
A: Sensitization to Rifampin [2]: 7.81; MIC [4, 10]: 62.5 μM and 54.3 μg/ml; MIC [5, 11]: 62.5 μM and 54.3 μg/ml

Q: Which results are given for `CCCCCCCCCCCCCCCCC(=O)NCCCNCCCNCCCCNCCCN.O=C(O)C(F)(F)F.O=C(O)C(F)(F)F.O=C(O)C(F)(F)F.O=C(O)C(F)(F)F` [Compound 4f]?
A: Sensitization to Rifampin [2]: 15.6; hemolysis ([6]; at 1-5 μM, dilute aged human erythrocytes, protein-free isotonic saline): 100%; hemolytic activity in the presence of human serum albumin [6]: completely abrogated; MIC [4, 10]: 15.6 μM and 15.1 μg/ml; MIC [5, 11]: 62.5 μM and 60.4 μg/ml; membrane-permeabilizing activity (OM and IM) [7]: highly membrane-active

Reference: patent US20070197658A1, “Polyamines and their use as antibacterial and sensitizing agents” (priority 2006, published 2007)
